In patent US8778935B2 (Centro Nacional de Investigaciones Oncologicas (CNIO), priority 2009, dated 2014):

Molecular target: T1, PI3K (p110α/p85α) (Homo sapiens, UniProt P42336)
T1 construct: purchased Carna Biosciences 07CBS-0402A
Assay: PI3K Activity Assay (ADP Hunter Plus)
Assay type: biochemical
Settings: PI3Kα activity, quantitative results; read-out: PI3Kα IC50
Description: The kinase activity was measured by using the commercial ADP Hunter™ Plus assay available from DiscoveRx (#33-016), which is a homogeneous assay to measure the accumulation of ADP, a universal product of kinase activity. […] Reaction was carried out for 1 hour at 25° C. Reagent A and B were sequentially added to the wells and plates were incubated for 30 min at 37° C. […] Values were normalized against the control activity included for each enzyme (i.e., 100% PI3 kinase activity, without compound). These values were plot against the inhibitor concentration and were fit to a sigmoid dose-response curve by using the Graphad software.

T1 sequence (P42336 whole entry): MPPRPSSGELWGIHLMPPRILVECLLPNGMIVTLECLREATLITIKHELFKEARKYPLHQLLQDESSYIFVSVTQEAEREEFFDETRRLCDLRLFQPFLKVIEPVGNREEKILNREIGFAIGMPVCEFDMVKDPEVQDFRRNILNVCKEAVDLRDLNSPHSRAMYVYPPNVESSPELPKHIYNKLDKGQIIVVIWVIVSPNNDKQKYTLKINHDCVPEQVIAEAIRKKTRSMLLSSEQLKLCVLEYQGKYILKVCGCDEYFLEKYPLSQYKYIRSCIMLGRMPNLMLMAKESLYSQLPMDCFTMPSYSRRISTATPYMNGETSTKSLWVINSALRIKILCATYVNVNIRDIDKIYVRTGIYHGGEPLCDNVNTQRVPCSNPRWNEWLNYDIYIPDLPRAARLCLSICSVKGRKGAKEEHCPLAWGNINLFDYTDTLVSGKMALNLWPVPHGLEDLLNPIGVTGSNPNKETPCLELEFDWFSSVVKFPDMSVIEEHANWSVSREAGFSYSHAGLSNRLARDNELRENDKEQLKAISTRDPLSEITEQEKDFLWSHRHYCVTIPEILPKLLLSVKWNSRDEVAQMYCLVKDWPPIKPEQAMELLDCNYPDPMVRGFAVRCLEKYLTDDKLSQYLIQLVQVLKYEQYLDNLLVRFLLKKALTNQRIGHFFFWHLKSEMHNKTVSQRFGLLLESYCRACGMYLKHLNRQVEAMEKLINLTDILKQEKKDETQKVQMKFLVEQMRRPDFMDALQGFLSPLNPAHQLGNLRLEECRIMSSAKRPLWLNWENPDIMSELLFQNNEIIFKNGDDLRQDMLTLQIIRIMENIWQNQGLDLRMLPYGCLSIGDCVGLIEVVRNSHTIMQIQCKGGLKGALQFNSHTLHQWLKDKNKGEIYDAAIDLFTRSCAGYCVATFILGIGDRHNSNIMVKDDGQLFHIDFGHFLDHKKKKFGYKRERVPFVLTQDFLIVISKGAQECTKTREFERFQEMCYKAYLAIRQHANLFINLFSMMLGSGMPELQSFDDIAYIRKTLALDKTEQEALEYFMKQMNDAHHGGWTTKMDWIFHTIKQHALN
T1 sequence (P27986 whole entry partner): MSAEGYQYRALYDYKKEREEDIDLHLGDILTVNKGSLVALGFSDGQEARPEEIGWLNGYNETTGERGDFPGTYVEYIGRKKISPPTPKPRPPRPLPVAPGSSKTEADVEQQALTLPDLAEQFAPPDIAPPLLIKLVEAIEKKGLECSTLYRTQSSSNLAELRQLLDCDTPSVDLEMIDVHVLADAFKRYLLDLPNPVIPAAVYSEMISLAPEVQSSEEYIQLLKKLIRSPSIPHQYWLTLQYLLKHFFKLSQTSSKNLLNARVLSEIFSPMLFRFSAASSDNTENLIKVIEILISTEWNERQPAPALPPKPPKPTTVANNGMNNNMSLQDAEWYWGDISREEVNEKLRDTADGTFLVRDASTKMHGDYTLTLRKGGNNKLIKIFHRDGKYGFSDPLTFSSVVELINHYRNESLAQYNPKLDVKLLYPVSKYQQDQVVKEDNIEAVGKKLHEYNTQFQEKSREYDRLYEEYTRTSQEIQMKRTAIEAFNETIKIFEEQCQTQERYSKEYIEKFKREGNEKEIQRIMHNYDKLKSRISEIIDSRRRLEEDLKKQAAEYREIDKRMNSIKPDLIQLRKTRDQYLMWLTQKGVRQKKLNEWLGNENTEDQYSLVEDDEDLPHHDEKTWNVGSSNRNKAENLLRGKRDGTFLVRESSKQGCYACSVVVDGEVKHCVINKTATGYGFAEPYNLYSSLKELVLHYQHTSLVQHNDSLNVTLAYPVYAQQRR

SMILES	IC50 [nM]
Nc1ncc(-c2cn3cc(C4CC4)nc3c(N3CCOCC3)n2)cn1 [2-171]	50
Cc1cn2cc(-c3cnc(N)nc3)nc(N3CCOCC3)c2n1 [2-181]	110
CCOC(=O)N1CCC(NC(=O)c2cn3cc(-c4cccc5[nH]ncc45)nc(N4CCOCC4)c3n2)CC1 [2-182]	245
CS(=O)(=O)N1CCN(Cc2nc3c(N4CCOCC4)nc(-c4cccc5[nH]ncc45)cn3c2Br)CC1 [2-183]	170
Cc1nc(N)ncc1-c1cn2cc(CN3CCN(S(C)(=O)=O)CC3)nc2c(N2CCOCC2)n1 [2-200]	32
CS(=O)(=O)N1CCN(Cc2cn3cc(-c4ccc(C#N)nc4)nc(N4CCOCC4)c3n2)CC1 [2-201]	3300
COc1ccncc1-c1cn2cc(CN3CCN(S(C)(=O)=O)CC3)nc2c(N2CCOCC2)n1 [2-204]	10000
CS(=O)(=O)N1CCN(Cc2cn3c(Cl)c(-c4ccc(C#N)nc4)nc(N4CCOCC4)c3n2)CC1 [2-206]	3700
CNc1ncc(-c2nc(N3CCOCC3)c3nc(CN4CCN(S(C)(=O)=O)CC4)cn3c2Cl)cn1 [2-207]	11
C[C@@H]1CN(C(=O)OC(C)(C)C)C[C@H](C)N1Cc1cn2cc(-c3cnc(N)nc3)nc(N3CCOCC3)c2n1 [2-218]	28
COC(=O)CC1COCCN1c1nc(-c2cnc(N)nc2)cn2cc(C)nc12 (stereo not shown) [2-224]	25400
Nc1ncc(-c2cn3cc(CN4CCNCC4)nc3c(N3CCOCC3)n2)cn1 [2-226]	77
COC(=O)C1COCCN1c1nc(-c2cnc(N)nc2)cn2cc(C)nc12 (stereo not shown) [2-227]	6090
Nc1ncc(-c2cn3cc(CN4CCC(O)CC4)nc3c(N3CCOCC3)n2)cn1 [2-229]	114
CN(C)CC(=O)N1CCN(Cc2cn3cc(-c4cnc(N)nc4)nc(N4CCOCC4)c3n2)CC1 [2-230]	34
CC(=O)O[C@H](C)C(=O)N1CCN(Cc2cn3cc(-c4cnc(N)nc4)nc(N4CCOCC4)c3n2)CC1 [2-231]	85
CC(C)(c1cn2cc(-c3cnc(N)nc3)nc(N3CCOCC3)c2n1)N1CCN(S(C)(=O)=O)CC1 [2-242]	16
Cc1cnc2c(N3CCOCC3)nc(-c3ccc(NC(=O)Nc4cccc(C(=O)O)c4)cc3)cn12 [2-244]	144

Same assay, conditions: quantitative results of Table 4; read-out: PI3Kα IC50

SMILES	IC50 [nM]
CC(C)(C)OC(=O)N1CCC2(CCN(Cc3cn4cc(-c5cccc6[nH]ncc56)nc(N5CCOCC5)c4n3)CC2)CC1 [2-98]	7200
CC(C)(C)OC(=O)N1CC2CN(Cc3cn4cc(-c5cccc6[nH]ncc56)nc(N5CCOCC5)c4n3)CC2C1 (stereo not shown) [2-99]	7900
CC(C)(C)OC(=O)N1CCC2(CCN(Cc3cn4cc(-c5cccc6[nH]ncc56)nc(N5CCOCC5)c4n3)C2)CC1 [2-100]	5300
NC(=O)c1cn2cc(-c3cccc4[nH]cc(Cl)c34)nc(N3CCOCC3)c2n1 [2-103]	34000
NC(=O)c1cn2c(Cl)c(-c3cccc4[nH]cc(Cl)c34)nc(N3CCOCC3)c2n1 [2-104]	93000
NC(=O)c1cn2cc(-c3c(F)ccc4[nH]cc(Cl)c34)nc(N3CCOCC3)c2n1 [2-105]	123000
NC(=O)c1cn2c(Cl)c(-c3c(F)ccc4[nH]cc(Cl)c34)nc(N3CCOCC3)c2n1 [2-106]	28000
COC(=O)Cc1cn2cc(-c3cccc4[nH]ncc34)nc(N3CCOCC3)c2n1 [2-107]	2600
COc1ccc(-c2nc(N3CCOCC3)c3nc(CN4CCN(S(C)(=O)=O)CC4)cn3c2Cl)cn1 [2-109]	1000
c1cc(-c2cn3cc(CN4CCC5(CCNCC5)CC4)nc3c(N3CCOCC3)n2)c2cn[nH]c2c1 [2-111]	813
c1cc(-c2cn3cc(CN4CC5CNCC5C4)nc3c(N3CCOCC3)n2)c2cn[nH]c2c1 (stereo not shown) [2-117]	851
c1cc(-c2cn3cc(CN4CCC5(CCNCC5)C4)nc3c(N3CCOCC3)n2)c2cn[nH]c2c1 [2-118]	1500
NC(=O)c1cn2cc(-c3cccnc3)nc(N3CCCCC3)c2n1 [2-119]	93
NC(=O)c1cn2cc(-c3cnc(N)nc3)nc(N3CCCCC3)c2n1 [2-120]	1300
CS(=O)(=O)N1CCN(Cc2cn3cc(-c4c(F)ccc5[nH]cc(Cl)c45)nc(N4CCOCC4)c3n2)CC1 [2-122]	50000
Cc1ccc(-c2cn3cc(CN4CCN(S(C)(=O)=O)CC4)nc3c(N3CCOCC3)n2)cn1 [2-126]	776
CS(=O)(=O)N1CCC2(CCN(Cc3cn4cc(-c5cccc6[nH]ncc56)nc(N5CCOCC5)c4n3)C2)CC1 [2-129]	2500
O=C1NCCC12CCN(Cc1cn3cc(-c4cccc5[nH]ncc45)nc(N4CCOCC4)c3n1)CC2 [2-130]	1400

SMILES	IC50 [nM]
O=C1CC2(CCN(Cc3cn4cc(-c5cccc6[nH]ncc56)nc(N5CCOCC5)c4n3)CC2)CN1 [2-131]	14000
CS(=O)(=O)N1CCC2(CCN(Cc3cn4cc(-c5cccc6[nH]ncc56)nc(N5CCOCC5)c4n3)CC2)C1 [2-134]	5200
CCOC(=O)c1cn2cc(-c3cnc(N)nc3)nc(N3CCOCC3)c2n1 [2-138]	12
CN(C)CCNC(=O)c1cn2cc(-c3cccc4[nH]ncc34)nc(N3CCOCC3)c2n1 [2-141]	65
O=C(NCCN1CCOCC1)c1cn2cc(-c3cccc4[nH]ncc34)nc(N3CCOCC3)c2n1 [2-142]	38
CN(C)CCNC(=O)c1cn2cc(-c3cccnc3)nc(N3CCOCC3)c2n1 [2-147]	832
CS(=O)(=O)N1CCC2(CCN(Cc3cn4cc(-c5cccc6[nH]ncc56)nc(N5CCOCC5)c4n3)CC2)CC1 [2-149]	1300
CS(=O)(=O)N1CCC2(CC1)CN(Cc1cn3cc(-c4cccc5[nH]ncc45)nc(N4CCOCC4)c3n1)C2 [2-150]	2800
Cc1ccncc1-c1cn2cc(CN3CCN(S(C)(=O)=O)CC3)nc2c(N2CCOCC2)n1 [2-152]	468
COc1cc(C)c(-c2cn3cc(CN4CCN(S(C)(=O)=O)CC4)nc3c(N3CCOCC3)n2)cn1 [2-153]	2400
COCCNC(=O)c1cn2cc(-c3cccnc3)nc(N3CCOCC3)c2n1 [2-154]	166
CC(=O)NCCNC(=O)c1cn2cc(-c3cccc4[nH]ncc34)nc(N3CCOCC3)c2n1 [2-157]	776
CC(=O)NCCNC(=O)c1cn2cc(-c3cccnc3)nc(N3CCOCC3)c2n1 [2-158]	2300
O=C(NCCN1CCOCC1)c1cn2cc(-c3cccnc3)nc(N3CCOCC3)c2n1 [2-159]	398
Nc1ncc(-c2cn3cc(C(=O)NCCN4CCOCC4)nc3c(N3CCOCC3)n2)cn1 [2-164]	11
Cc1cn2cc(-c3cnc(N)nc3)nc(-c3ccncc3)c2n1 [2-166]	1800
Cc1cn2cc(-c3cccc4[nH]ncc34)nc(-c3ccncc3)c2n1 [2-168]	26000
CS(=O)(=O)N1CCC2(CC1)CN(Cc1cn3cc(-c4cnc(N)nc4)nc(N4CCOCC4)c3n1)C2 [2-169]	110

Same assay, conditions: quantitative results; read-out: PI3Kα IC50

SMILES	IC50 [nM]
CCOC(=O)c1cn2cc(-c3cccc(O)c3)nc(N3CCOCC3)c2n1 [2-01, ethyl 6-(3-hydroxyphenyl)-8-morpholinoimidazo[1,2-a]pyrazine-2-carboxylate]	158
Oc1cccc(-c2cn3cc(C(F)(F)F)nc3c(N3CCOCC3)n2)c1 [2-13, 3-(2-(trifluoromethyl)-8-morpholinoimidazo[1,2-a]pyrazin-6-yl)phenol]	108
CS(=O)(=O)N1CCN(C(=O)c2cn3cc(-c4cccc5[nH]ncc45)nc(N4CCOCC4)c3n2)CC1 [2-16, (6-(1H-indazol-4-yl)-8-morpholinoimidazo[1,2-a]pyrazin-2-yl)(4-sulfonylmethyl-piperazin-1-yl)methanone]	254
CCNC(=O)c1cn2cc(-c3cccc4[nH]ncc34)nc(N3CCOCC3)c2n1 [2-74, N-ethyl-6-(1H-indazol-4-yl)-8-morpholinoimidazo[1,2-a]pyrazine-2-carboxamide]	92
CNC(=O)c1cn2cc(-c3cccc4[nH]ncc34)nc(N3CCOCC3)c2n1 [2-79]	110

Same assay, conditions: semi-quantitative results; read-out: PI3Kα IC50 (semi-quantitative class)

SMILES	IC50 [nM]
CCOC(=O)c1cn2cc(-c3cccc(O)c3)nc(N3CCOCC3)c2n1 [2-01, ethyl 6-(3-hydroxyphenyl)-8-morpholinoimidazo[1,2-a]pyrazine-2-carboxylate]	100 to 1000
Oc1cccc(-c2cn3cc(C(F)(F)F)nc3c(N3CCOCC3)n2)c1 [2-13, 3-(2-(trifluoromethyl)-8-morpholinoimidazo[1,2-a]pyrazin-6-yl)phenol]	100 to 1000

Tested on: phospho-Ser-473-Akt
Assay: PI3K signalling: AKT phosphorylation inhibition, Western blot analysis
Assay type: cell-based
Settings: Homo sapiens, cell assay, read-out: IC50 of AKT Phosphorylation Inhibition (p-AKT cell)
Description: Cell culture: The cell lines were obtained from the American Type Culture Collection (ATCC). U2OS (human osteosarcoma) was cultured in Dulbecco's modified Eagle's medium (DMEM). PC3 (human prostate carcinoma), MCF7 (human breast cardinoma), HCT116 (human colon carcinoma), […], U251 (human glyoblastoma) were grown in RPMI. All media were supplemented with 10% fetal bovine serum (FBS) (Sigma) and antibiotics-antimycotics. Cell were maintained in a humidified incubator at 37° C. with 5% CO2 and passaged when confluent using trypsin/EDTA.
AKT phosphorylation Inhibition. Western Blot Analysis: Subconfluent cells were incubated under different conditions and washed twice with TBS prior to lysis. Lysis buffer was added containing 50 mM Tris HCl, 150 mM NaCl, 1% NP-40, 2 mM Na3VO4, 100 mM NaF, 20 mM Na4P2O7 and protease inhibitor cocktail (Roche Molecular Biochemicals). The proteins were resolved on 10% SDS-PAGE and transferred to nitrocellulose membrane (Schleicher & Schuell, Dassel, Germany). The membranes were incubated overnight at 4° C. with antibodies specific for Akt, phospho-Ser-473-Akt (Cell Signaling Technology) and α-tubulin (Sigma), they were washed and then incubated with IRDye800 conjugated anti-mouse and Alexa Fluor 680 goat anti-rabbit IgG secondary antibodies. The bands were visualized using an Odyssey infrared imaging system (Li-Cor Biosciences).

SMILES	IC50 [nM]
CCOC(=O)c1cn2cc(-c3cccc(O)c3)nc(N3CCOCC3)c2n1 [2-01, ethyl 6-(3-hydroxyphenyl)-8-morpholinoimidazo[1,2-a]pyrazine-2-carboxylate]	132
CS(=O)(=O)N1CCN(Cc2cn3cc(-c4cccc(O)c4)nc(N4CCOCC4)c3n2)CC1 [2-10, 1-(4-((6-(3-hydroxyphenyl)-8-morpholinoimidazo[1,2-a]pyrazin-2-yl)methyl)-piperazin-1-yl)sulfonylmethane]	48
Oc1cccc(-c2cn3cc(C(F)(F)F)nc3c(N3CCOCC3)n2)c1 [2-13, 3-(2-(trifluoromethyl)-8-morpholinoimidazo[1,2-a]pyrazin-6-yl)phenol]	714
CS(=O)(=O)N1CCN(C(=O)c2cn3cc(-c4cccc5[nH]ncc45)nc(N4CCOCC4)c3n2)CC1 [2-16, (6-(1H-indazol-4-yl)-8-morpholinoimidazo[1,2-a]pyrazin-2-yl)(4-sulfonylmethyl-piperazin-1-yl)methanone]	503
CS(=O)(=O)N1CCN(Cc2cn3cc(-c4cccc5[nH]ncc45)nc(N4CCOCC4)c3n2)CC1 [2-17, 6-(1H-indazol-4-yl)-2-((4-sulfonylmethylpiperazin-1-yl)methyl)-8-morpholino-imidazo[1,2-a]pyrazine]	391
CCNC(=O)c1cn2cc(-c3cccc4[nH]ncc34)nc(N3CCOCC3)c2n1 [2-74, N-ethyl-6-(1H-indazol-4-yl)-8-morpholinoimidazo[1,2-a]pyrazine-2-carboxamide]	37
CNC(=O)c1cn2cc(-c3cccc4[nH]ncc34)nc(N3CCOCC3)c2n1 [2-79]	42
NC(=O)c1cn2cc(-c3cccnc3)nc(N3CCCCC3)c2n1 [2-119]	87
O=C(NCCN1CCOCC1)c1cn2cc(-c3cccc4[nH]ncc34)nc(N3CCOCC3)c2n1 [2-142]	116
COCCNC(=O)c1cn2cc(-c3cccnc3)nc(N3CCOCC3)c2n1 [2-154]	1050
Nc1ncc(-c2cn3cc(C(=O)NCCN4CCOCC4)nc3c(N3CCOCC3)n2)cn1 [2-164]	34
Nc1ncc(-c2cn3cc(C4CC4)nc3c(N3CCOCC3)n2)cn1 [2-171]	379
